Measured values from patent US10385321B2, “MRP-14 targeting peptides and uses thereof” (priority 2016, dated 2019).
“Also recorded” adds a separate entry of the source. Read-outs that look alike come from different tables or passages of the source. Positions of bridges follow the written chain, without caps; N, C: chain ends. Residues, ends and D or L forms follow the SMILES beside them. *: point of attachment. X1 = [N-]=[N+]=NC[C@H](NC(=O)CCC(=O)NCCCOCCOCCOCCCN*)C(=O)O

Assays:
[1] = molecular target: T1, MRP-14 (Homo sapiens, UniProt P06702); assay: SPR binding of peptides to immobilized His-tagged MRP-14; conditions: for SPR binding behaviour (in words): sensorgrams, immobilized MRP-14
T1 construct: purchased Novus Biologicals
T1 sequence (P06702 1-114): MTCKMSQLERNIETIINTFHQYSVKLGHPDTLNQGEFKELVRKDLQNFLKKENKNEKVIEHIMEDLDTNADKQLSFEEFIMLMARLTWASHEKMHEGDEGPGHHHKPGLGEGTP
Description: Shortlisted MRP-14 targeting peptides (MTPs) were synthesized with a GGGS spacer and C-terminal amidation (Genscript) and their binding affinities characterized by SPR using Biacore T100 (GE Healthcare). PBST (0.05% Tween 20), pH 7.4 containing […] ethylenediaminetetraacetic acid (EDTA) was used as the running buffer. NTA sensor chips (GE Healthcare) were charged with 0.5 mM NiCl2 solution for 2 minutes at a flowrate of 10 μL/min, then 10 μg/mL His-tagged MRP-14 was bound for 2 minutes at 10 μL/min. For testing affinity to MRP-8/14, untagged MRP-8 (Novus Biologicals) was premixed in a 1:1 ratio with His-tagged MRP-14 for 3 hours in the presence of 0.1 mM CaCl2. Peptides at concentrations ranging from 6.25 μM to 100 μM diluted in running buffer were then injected at 30 μL/min for 1 minute association followed by 1 minute dissociation. Affinity was calculated by fitting a saturation binding curve to the equilibrium response vs. peptide concentration graph.
Their binding affinity to MRP-14 was then quantified using surface plasmon resonance (SPR) with an NTA sensor chip. After charging with Ni^2+, His-tagged MRP-14 was immobilized on the chip.

[2] = system: platelet thrombi in anticoagulated blood on collagen-coated capillaries; assay: Ex vivo shear-induced thrombus formation in perfusion (flow) chamber; conditions: for effect on shear-induced thrombus formation: particles 50 μg/mL, arterial shear rate 600 s^−1, versus PBS only control
Description: A perfusion chamber (Portola Pharmaceuticals) was used to evaluate the effect of particles on thrombus formation time. Factor Xa inhibitor anticoagulated blood was labeled with […] Rhodamine 6G (Sigma-Aldrich) for 10 minutes. Particles were added at a final concentration of 50 μg/mL and then the blood perfused through human type III collagen-coated rectangular capillaries at an arterial shear rate of 600 s^−. Thrombus formation under flow was then visualized in real time and average fluorescence of platelet aggregation over time quantified.
Particles were added before perfusion at a concentration of 50 μg/mL, and visualization of thrombus formation was achieved through fluorescence signal from cells labeled with Rhodamine 6G (FIG. 5A). After imaging, average pixel intensity of platelet aggregates over time was quantified (FIG. 5B). […] This is a concern when using nanoparticles to target coagulation factors such as platelets and fibrin due to potential incorporation into the coagulation cascade and further aggregation, as illustrated by the use of such particles for mediating hemostasis.

[3] = molecular target: MRP-8/14 (Homo sapiens, UniProt P06702); assay: biochemical
Description: Shortlisted MRP-14 targeting peptides (MTPs) were synthesized with a GGGS spacer and C-terminal amidation (Genscript) and their binding affinities characterized by SPR using Biacore T100 (GE Healthcare). PBST (0.05% Tween 20), pH 7.4 containing 50 ethylenediaminetetraacetic acid (EDTA) was used as the running buffer. NTA sensor chips (GE Healthcare) were charged with 0.5 mM NiCl2 solution for 2 minutes at a flowrate of 10 μL/min, then 10 μg/mL His-tagged MRP-14 was bound for 2 minutes at 10 μL/min. […] Peptides at concentrations ranging from 6.25 μM to 100 μM diluted in running buffer were then injected at 30 μL/min for 1 minute association followed by 1 minute dissociation. Affinity was calculated by fitting a saturation binding curve to the equilibrium response vs. peptide concentration graph.

[4] = molecular target: T1, MRP-14; assay: Phage ELISA on MRP-14-coated plates; type: binding; conditions: BSA as background
Description: Phage specificity for MRP-14 was verified by performing an ELISA. Polysorp 96-well plates (Nunc) were coated with 50 μL of 50 μg/mL MRP-14 in 0.1 M NaHCO3, pH 8.6 in a humidified chamber overnight at 4° C. The coated wells and additional wells for phage dilutions were blocked with 5 mg/mL BSA in 0.1 M NaHCO3, pH 8.6 for 1 hour at 4° C. After washing 6 times with TBST (0.5% Tween 20), 8 serial fourfold dilutions from 10^12 phages/mL down to 6×10^7 phages/mL were performed in blocked wells then 100 μL of the phages added to MRP-14-coated wells and incubated for 1 hour at room temperature. […] Finally, HRP activity was detected using 100 μL 2,2′-azino-bis(3-ethylbenzothiazoline-6-sulfonic acid) diammonium salt (ABTS) colorimetric substrate solution (Life Technologies) at room temperature for 30 minutes. Absorbance was measured at 410 nm using a Tecan Infinite 200 plate reader
To narrow down the peptide library to the ones with highest affinity, an enzyme-linked immunosorbent assay (ELISA) was performed with the isolated phages. […] Bound phage was detected using horseradish peroxidase (HRP)-labeled anti-M13 antibodies followed by addition of 2,2′-azino-bis(3-ethylbenzothiazoline-6-sulfonic acid) diammonium salt (ABTS) substrate (FIG. 1). […]

[5] = system: thrombi in carotid artery; assay: Photochemical injury mouse model of thrombosis, Maestro fluorescence imaging of carotid arteries; type: in vivo, C57BL/6 mice; conditions: sCy5-labeled particles 200 μg i.v. before injury; n=3; contralateral artery as control
Description: 8-9 week old male C57BL/6 mice were anesthetized by intraperitoneal injection of 62.5 mg/kg sodium pentobarbital. After anesthesia, peptide-targeted and untargeted TMV particles (200 μg/100 μL) were injected intravenously followed by dissection of the mice to expose the right common carotid artery. Rose Bengal dye (10 mg/mL in PBS) was then administered via tail vein injection and a 540 nm green laser light (1.5 mW, Melles Griot) placed 5 cm from the artery was used to stimulate photochemical injury and induce thrombus formation. A Doppler flow probe (Transonic Systems) was placed under the artery and used to monitor blood flow. The mice were sacrificed after vessel occlusion. The artery and the contralateral control were excised and fixed in formalin, then imaged by Maestro fluorescence imaging to determine targeting of the particles (see below).
(§1) The red fluorescence from sCy5 was imaged using Maestro imager, with 800 ms exposure time for the arteries and 400 ms exposure time for the organs. The signal was filtered with 576 to 621 nm excitation and 635-nm longpass emission filters.
Progressing to the mouse model, the particles were first injected intravenously, then thrombosis was induced through photochemical injury of the carotid artery, specifically through reactive oxygen species formation from the reaction of green laser light with injected Rose Bengal dye. A flow probe was used to monitor the development of thrombosis, and the arteries along with their contralateral control were excised following occlusion of the vessel.

[6] = sCy5-labeled particles i.v.; brain, lungs, heart, kidneys, spleen, liver
Description: 8-9 week old male C57BL/6 mice were anesthetized by intraperitoneal injection of 62.5 mg/kg sodium pentobarbital. After anesthesia, peptide-targeted and untargeted TMV particles (200 μg/100 μL) were injected intravenously followed by dissection of the mice to expose the right common carotid artery. […] Additionally, to study the biodistribution of the particles, the brain, heart, lungs, kidneys, spleen, and liver were also excised and imaged with Maestro imager.
as §1
Biodistribution was investigated concurrently with the photochemical injury model. The brain, lungs, heart, kidneys, spleen, and liver were collected and particle clearance examined through Maestro imaging (FIG. 6A).

[7] = kinetic fitting, 390.625 nM to 12.5 μM of MTP6

MRP-8/14, sequence (P05109 whole entry partner, one chain of several): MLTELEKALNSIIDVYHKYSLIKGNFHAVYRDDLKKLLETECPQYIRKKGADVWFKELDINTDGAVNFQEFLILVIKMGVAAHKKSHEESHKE

CC(C)[C@@H]1NC(=O)[C@H](CO)NC(=O)[C@H](CC(N)=O)NC(=O)[C@@H](NC(=O)[C@H](C)N)CSSC[C@@H](C(=O)NCC(=O)NCC(=O)NCC(=O)N[C@@H](CO)C(=O)NCCCOCCOCCOCCCNC(=O)CCC(=O)N[C@@H](CN=[N+]=[N-])C(=O)O)NC(=O)[C@H](Cc2c[nH]cn2)NC(=O)[C@H](Cc2c[nH]cn2)NC(=O)[C@H](CCC(N)=O)NC(=O)[C@H](Cc2c[nH]cn2)NC1=O [MTP6-N3] (H-ACNSVHQHHCGGGS-X1; disulfide 2-10; N-terminus assumed)
Kd ([1]; saturation binding curve fit of equilibrium response, peptides 6.25 μM to 100 μM, NTA chip, read-out: Kd (dissociation constant from SPR measurements with MRP-14)): 55.7 µM

CC(C)[C@@H]1NC(=O)[C@H](CO)NC(=O)[C@H](CC(N)=O)NC(=O)[C@@H](NC(=O)[C@H](C)N)CSSC[C@@H](C(=O)NCC(=O)NCC(=O)NCC(=O)N[C@@H](CO)C(N)=O)NC(=O)[C@H](Cc2c[nH]cn2)NC(=O)[C@H](Cc2c[nH]cn2)NC(=O)[C@H](CCC(N)=O)NC(=O)[C@H](Cc2c[nH]cn2)NC1=O [MTP6] (H-ACNSVHQHHCGGGS-NH2; disulfide 2-10 (inferred); N-terminus assumed)
Kd [1]: 39.6 µM
effect on shear-induced thrombus formation [2]: does not appear to block involvement of MRP-14 in thrombosis
Kd [3]: 57.6 µM

CC(C)C[C@@H]1NC(=O)CNC(=O)[C@H]([C@@H](C)O)NC(=O)[C@@H]2CCCN2C(=O)[C@@H](NC(=O)[C@H](C)N)CSSC[C@@H](C(=O)NCC(=O)NCC(=O)NCC(=O)N[C@@H](CO)C(N)=O)NC(=O)[C@H](C)NC(=O)[C@H](Cc2c[nH]cn2)NC(=O)[C@H](Cc2c[nH]cn2)NC1=O [MTP9] (H-ACPTGLHHACGGGS-NH2; disulfide 2-10 (inferred); N-terminus assumed)
SPR binding behaviour (in words) [1]: quick initial interaction followed by a slower binding phase

C[C@H](N)C(=O)N[C@H]1CSSC[C@@H](C(=O)NCC(=O)NCC(=O)NCC(=O)N[C@@H](CO)C(=O)O)NC(=O)[C@H](CO)NC(=O)[C@H](Cc2c[nH]cn2)NC(=O)[C@H](CC(N)=O)NC(=O)[C@H](CC(N)=O)NC(=O)[C@H](CCCCN)NC(=O)[C@@H]2CCCN2C(=O)[C@H](CCCNC(=N)N)NC1=O [MTP10]
SPR binding behaviour (in words) [1]: did not really associate with MRP-14
phage binding to MRP-14 (in words) [4]: one of the best peptides

MDPHAHNGGGS [Scrambled, reference compound]
Kd (dissociation constant from SPR measurements with MRP-14) ([1]; saturation binding curve fit of equilibrium response, peptides 6.25 μM to 100 μM, NTA chip): no
SPR binding behaviour (in words) [1]: low non-specific binding

B1: TMV-MTP6: MTP6-N3 attached to the exterior of tobacco mosaic virus by CuAAC, approximately 400 MTP6 per particle; sCy5-labeled for imaging (conjugate)
peptide: ACNSVHQHHCGGGS
chain: SYSITTPSQFVFLSSAWADPIELINLCTNALGNQFQTQQARTVVQRQFSEVWKPSPQVTVRFPDSDFKVYRYNAVLDPLVTALLGAFDTRNRIIEVENQANPTTAETLDATRRVDDATVAIRSAINNLIVELIRGTGSYNRSSFESSSGLVWTSGPAT
Kd ([1]; kinetic curve fitting instead of equilibrium fit, read-out: Kd (dissociation constant from SPR measurements with MRP-14), kinetic fit): 0.754 µM
ka (association rate) [1, 7]: 909.6 M⁻¹ s⁻¹
kd (dissociation rate) [1, 7]: 0.0006858 s⁻¹
aggregation of particles in blood ([2]; ex vivo flow model): no aggregation observed
effect on shear-induced thrombus formation [2]: some delay in thrombus onset; also recorded: no stimulation of thrombosis; also recorded: no significant effect on thrombosis
targeting of thrombi (fluorescence signal in injured artery) [5]: some success with imaging thrombi; also recorded: targeting was observed; also recorded: targeted TMV-MTP6 attachment to the thrombi and no nonspecific accumulation in the contralateral, uninjured artery
biodistribution / route of clearance [6]: clearance predominantly through the liver
